molecular target: p38a activated, mitogen-activated protein kinase-activated protein kinase 2 (MAPKAP-K2 or MK2) enzyme (Homo sapiens (Human), UniProt P49137); assay: MK2 Omnia continuous-read kinase assay for compound potency; assay type: biochemical; conditions: [MK-2]=0.4 nM, [ATP]=10 μM, [ST3-Sox]=10 μM; room temperature
Method in brief: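 Continuous Sox-peptide fluorescence read (ex360/em485) every 71 s over 2 h at room temperature. Reactions: 10 μM each of ATP (at apparent Km) and S/T3-Sox, 0.4 nM p38a-activated MK2, pH 7.5 Tris/MgCl2 buffer. Initial rates yield % inhibition and IC50; single-exponential kobs values yield apparent kinact/KI.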

Chain of p38a activated, mitogen-activated protein kinase-activated protein kinase 2 (MAPKAP-K2 or MK2) enzyme (P49137 whole entry): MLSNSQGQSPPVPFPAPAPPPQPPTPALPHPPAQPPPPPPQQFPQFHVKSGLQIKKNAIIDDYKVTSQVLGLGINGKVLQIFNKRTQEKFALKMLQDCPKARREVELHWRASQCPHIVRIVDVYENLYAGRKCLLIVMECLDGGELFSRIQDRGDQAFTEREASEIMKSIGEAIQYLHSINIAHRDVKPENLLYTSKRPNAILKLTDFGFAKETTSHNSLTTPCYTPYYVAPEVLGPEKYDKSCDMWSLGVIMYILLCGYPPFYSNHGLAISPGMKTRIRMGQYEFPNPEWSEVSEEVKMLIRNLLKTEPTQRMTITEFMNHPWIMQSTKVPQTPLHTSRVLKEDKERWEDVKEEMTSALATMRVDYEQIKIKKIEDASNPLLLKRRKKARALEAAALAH

| Structure (SMILES) | IC50 [nM] |
| --- | --- |
| C=C(CN1CCOCC1)c1cc(-c2ccc3c(ccc4sc5c(c43)NC[C@@H](C)NC5=O)n2)ccn1 [Example I-131, (R)-10-methyl-3-(2-(3-morpholinoprop-1-en-2-yl)pyridin-4-yl)-9,10,11,12-tetrahydro-8H-[1,4]diazepino[5′,6′:4,5]thieno[3,2-f]quinolin-8-one] | 3 |
| C=Cc1cncc(-c2ccc3c(ccc4sc5c(c43)NC[C@@H](C)NC5=O)n2)c1 [Example I-82, (R)-10-methyl-3-(5-vinylpyridin-3-yl)-9,10,11,12-tetrahydro-8H-[1,4]diazepino[5′,6′:4,5]thieno[3,2-f]quinolin-8-one] | 21 |
| C=Cc1ncc(COC2(C)CCC2)c(-c2ccc3c(ccc4sc5c(c43)NC[C@@H](C)NC5=O)n2)n1 [Example I-26, (R)-10-methyl-3-(5-((1-methylcyclobutoxy)methyl)-2-vinylpyrimidin-4-yl)-9,10,11,12-tetrahydro-8H-[1,4]diazepino[5′,6′:4,5]thieno[3,2-f]quinolin-8-one] | 684 |
| C#Cc1cc(-c2ccc3c(ccc4sc5c(c43)NC[C@@H](C)NC5=O)n2)c(C)cn1 [Example I-111, (R)-3-(2-ethynyl-5-methylpyridin-4-yl)-10-methyl-9,10,11,12-tetrahydro-8H-[1,4]diazepino[5′,6′:4,5]thieno[3,2-f]quinolin-8-one] | 104 |
| C/C=C\c1ncc(F)c(-c2ccc3c(ccc4sc5c(c43)NC[C@@H](C)NC5=O)n2)n1 [Example I-46, (R,Z)-3-(5-fluoro-2-(prop-1-en-1-yl)pyrimidin-4-yl)-10-methyl-9,10,11,12-tetrahydro-8H-[1,4]diazepino[5′,6′:4,5]thieno[3,2-f]quinolin-8-one] | 765 |
| C=C(F)c1cccc(-c2ccc3c(ccc4sc5c(c43)NC[C@@H](C)NC5=O)n2)n1 [Example I-90, (R)-3-(6-(1-fluorovinyl)pyridin-2-yl)-10-methyl-9,10,11,12-tetrahydro-8H-[1,4]diazepino[5′,6′:4,5]thieno[3,2-f]quinolin-8-one] | 460 |
| C#Cc1cncc(-c2ccc3c(ccc4sc5c(c43)NC[C@@H](C)NC5=O)n2)c1 [Example I-83, (R)-3-(5-ethynylpyridin-3-yl)-10-methyl-9,10,11,12-tetrahydro-8H-[1,4]diazepino[5′,6′:4,5]thieno[3,2-f]quinolin-8-one] | 83 |

Now from value to compound:

| IC50 [nM] | Structure (SMILES) |
| --- | --- |
| 11 | C=Cc1cc(-c2ccc3c(ccc4sc5c(c43)NC[C@@H](C)NC5=O)n2)cc(N2CCC2)n1 [Example I-179, (R)-3-(2-(azetidin-1-yl)-6-vinylpyridin-4-yl)-10-methyl-9,10,11,12-tetrahydro-8H-[1,4]diazepino[5′,6′:4,5]thieno[3,2-f]quinolin-8-one] |
| 5 | C=Cc1cc(-c2ccc3c(ccc4sc5c(c43)NC[C@@H](C)NC5=O)n2)c(C)c(C)n1 [Example I-194, (R)-3-(2,3-dimethyl-6-vinylpyridin-4-yl)-10-methyl-9,10,11,12-tetrahydro-8H-[1,4]diazepino[5′,6′:4,5]thieno[3,2-f]quinolin-8-one] |
| 21 | C=Cc1cc(-c2ccc3c(ccc4sc5c(c43)NCC(C)NC5=O)n2)cc(N2CCC3(CCC(=O)O3)CC2)n1 (racemic) [Example I-215, rac-(R)-8-(4-(10-methyl-8-oxo-9,10,11,12-tetrahydro-8H-[1,4]diazepino[5′,6′:4,5]thieno[3,2-f]quinolin-3-yl)-6-vinylpyridin-2-yl)-1-oxa-8-azaspiro[4.5]decan-2-one] |
| 5 | C=Cc1cc(-c2ccc3c(ccc4sc5c(c43)NC[C@@H](C)NC5=O)n2)c(C)c(CN2CCOCC2)n1 [Example I-197, (R)-10-methyl-3-(3-methyl-2-(morpholinomethyl)-6-vinylpyridin-4-yl)-9,10,11,12-tetrahydro-8H-[1,4]diazepino[5′,6′:4,5]thieno[3,2-f]quinolin-8-one] |

Reference: patent US20240190890A1, “MK2 INHIBITORS AND USES THEREOF” (Bristol-Myers Squibb Company, priority 2022, published 2024)
